{"source": "patent US20050266096A1", "about": "“New synergetic compositions of vitamins, minerals and trace-elements to stimulate the elimination of intra-cellular lipid deposits” (priority 2004, published 2005)"}
{"tested_on": "vascular smooth muscle cells", "experiment": "Reduction of intracellular lipid deposits in lipid-loaded cell cultures", "type": "cell-based", "conditions": "individual element; concentration per row in μg/ml (0.016% RDA); 3 days after exposure; vs untreated control cultures = 100% lipid deposits; n = 24", "procedure": "(§1) To evaluate the effects of vitamins, minerals & trace-elements on the cellular capacity to eliminate intracellular lipid deposits, the cultures of vascular smooth muscle cells were prepared on plastic cover slips in vitro as described by Shrivastava at al (Meth Expt Find,1994).\n(§2) A 50-60% cell monolayer was obtained within 4 days of culture. The hyperlipidemic rabbit serum was added to the culture medium, cells were incubated at 37° C.-5% CO2 for 48 h and the presence of intracellular cytoplasmic lipid deposit was quantified (considered 100% lipid deposits) . The culture medium was then replaced by a predefined blank medium containing no vitamins, minerals & trace-elements containing 1% fetal calf serum. Desired concentrations of vitamins, minerals and trace-elements were prepared in the predefined control culture medium by dissolving the test substances in the medium and by replacing the culture medium by the test product containing medium.\n(§3) The in vitro cytoxicity of each vitamin, mineral and trace-element was determined. […]\n(§4) The results were expressed a mean percentage decrease in intracellular lipid deposits compared to the untreated control cultures considered as containing 100% lipid deposits.", "units": {"Percent decrease in intracellular lipids": "%"}}
{"compound": "[I-].[K+]", "note": "[Iodine, potassium iodide]", "Percent decrease in intracellular lipids": 0.0}
{"compound": "[O]=[Mg]", "note": "[Magnesium, magnesium oxide]", "Percent decrease in intracellular lipids": "22.0 ± 5.2"}
{"compound": "[Cl-].[K+]", "note": "[Potassium, potassium chloride]", "Percent decrease in intracellular lipids": 0.0}
{"compound": "[O-2].[Zn+2]", "note": "[Zinc, zinc oxide]", "Percent decrease in intracellular lipids": "16.3 ± 4.4"}
{"compound": "calcium gluconate", "Percent decrease in intracellular lipids": 0.0}
{"compound": "iron gluconate", "Percent decrease in intracellular lipids": "6.3 ± 2.7"}
{"tested_on": "vascular smooth muscle cells", "experiment": "Reduction of intracellular lipid deposits in lipid-loaded cell cultures", "type": "cell-based", "conditions": "tables 1-3", "procedure": "as §1, §2, §3, §4"}
{"compound": "[O]=[Mg]", "note": "[Magnesium, magnesium oxide]", "effect on the reduction/elimination of intracellular lipid deposits (in words)": "minor effect"}
{"compound": "CC1=C(/C=C/C(C)=C/C=C/C(C)=C/C=C/C=C(C)/C=C/C=C(C)/C=C/C2=C(C)CCCC2(C)C)C(C)(C)CCC1", "note": "[Vitamin A, beta carotene]", "effect on the reduction/elimination of intracellular lipid deposits (in words)": "minor effect"}
{"compound": "Cc1cc2nc3c(=O)[nH]c(=O)nc-3n(C[C@H](O)[C@H](O)[C@H](O)CO)c2cc1C", "note": "[Vitamin B2, riboflavin]", "effect on the reduction/elimination of intracellular lipid deposits (in words)": "minor effect"}
{"compound": "Nc1nc2ncc(CNc3ccc(C(=O)N[C@@H](CCC(=O)O)C(=O)O)cc3)nc2c(=O)[nH]1", "note": "[Vitamin B9, folic acid]", "effect on the reduction/elimination of intracellular lipid deposits (in words)": "minor effect"}
{"compound": "CC(=O)Oc1c(C)c(C)c2c(c1C)CCC(C)(CCC[C@H](C)CCC[C@H](C)CCCC(C)C)O2", "note": "(stereo partly drawn) [Vitamin E, tocopherol acetate]", "effect on the reduction/elimination of intracellular lipid deposits (in words)": "minor effect"}
{"compound": "[O-2].[Zn+2]", "note": "[Zinc, zinc oxide]", "effect on the reduction/elimination of intracellular lipid deposits (in words)": "minor effect"}
